# Experimental data published in article PMC7156458, “Synthetic biology based construction of biological activity-related library of fungal decalin-containing diterpenoid pyrones” (Nature Communications, 2020).
# Like-named read-outs stand apart in the source and are kept apart here.
# Assays:
# [1] = system: MCF-7 cells; experiment: cell cytotoxic effects against MCF-7 cells (72 h), A490; assay type: cell-based, human; details: MCF-7, 72 h; for viability at 0.1 µM / viability at 1 µM / viability at 10 µM: Homo sapiens, MCF7, 72 h, read-out: A490 (control =1) ave
# Protocol: !" ' ' '! !" ' ' '! !" ' ' '!!" ' ' '!!" ' ' '!!" ' ' '!!" ' ' '!!" ' ' '! !" ' ' '! !" ' ' '! !" ' ' '! !"#$
# ( % ) * '! '' '# '+ '$ '( '%
# ! " # $ %& %% %' %( %) %! %"
# !" ' ' '! !" ' ' '!!" ' ' '!!" ' ' '!!" ' ' '!!" ' ' '!!" ' ' '! !" ' ' '! !" ' ' '! !" ' ' '! !" ' ' '! […]
# Supplementary Fig. 46. a, Cell cytotoxic effects of DDPs against MCF-7 cells (72 h).
# dose dependent cytotoxic effects against MCF-7 cells were tested their inhibitory activity against mammosphere
# formation. Compound in blue (16) was also performed mammosphere assay as negative control. Data represent
# mean±s.d. from three independent replicate experiments. […]
# Source data underlying Supplementary Figure 46a are provided in a Source Data file. […]
# [2] = system: DL1 cells; experiment: cytotoxicity in Drosophila DL1 cells; assay type: cell-based; details: DL1 cells; for IC50: cytotoxicity; for % viability, viability 1: replicate 1, relative to DMSO 1%; for % viability, viability 2: replicate 2, relative to DMSO 1%
# Protocol: (§1) We screened the DDPs on the Drosophila assay system for cytotoxicity, inhibitory activity of innate immune signalling and insecticidal activity. The cytotoxicity of the DDPs was evaluated using two cell lines, embryonic macrophage-derived DL1 cells[58]–[60] and larval blood cell-derived l(2)mbn cells, and their IC50 values are listed in Supplementary Table 23.
# [3] = cytotoxicity in Drosophila DL1 cells; assay type: cell-based; details: Drosophila, DL1 cells (embryonic macrophage-derived), DL1 cells
# Protocol: as §1
# [4] = cytotoxicity in Drosophila l(2)mbn cells; assay type: cell-based; details: Drosophila, l(2)mbn cells (larval blood cell-derived)
# Protocol: as §1
# [5] = system: l(2)mbn cells; experiment: cytotoxicity in Drosophila l(2)mbn cells; assay type: cell-based; details: for Luminescence Raw1: replicate 1; for Luminescence Raw2: replicate 2; for IC50: cytotoxicity; for % viability, viability 1: replicate 1, relative to DMSO 1%; for % viability, viability 2: replicate 2, relative to DMSO 1%
# Protocol: as §1
# [6] = 0.1 µM (DMSO 0.002%), control 1.064
# [7] = 1 µM (DMSO 0.02%), control 1.104
# [8] = 10 µM (DMSO 0.2%), control 1.049
# [9] = Drosophila melanogaster, average of two replicates, read-out: IC50 Average
# [10] = Drosophila melanogaster, average±SEM, read-out: IC50
# [11] = Drosophila melanogaster, replicate 1, read-out: IC50 (1)
# [12] = Drosophila melanogaster, replicate 2, read-out: IC50 (2)
# [13] = replicate 1, relative to DMSO 1%, read-out: % viability, viability 1
# [14] = replicate 2, relative to DMSO 1%, read-out: % viability, viability 2
# [15] = average of two replicates, read-out: IC50 Average
# [16] = replicate 1, read-out: IC50 (1)
# [17] = replicate 2, read-out: IC50 (2)
smiles,measurement,setting,value
C=C1CC[C@H]2[C@]3(C)C[C@H](C=C(C)C)O[C@H]3CC[C@]2(C)[C@@H]1Cc1c(OC)oc(C)c(C)c1=O [Compound 24],viability at 0.1 µM,[1]; 0.1 µM (DMSO 0.002%),64%
same,viability at 1 µM,[1]; 1 µM (DMSO 0.02%),76.3%
same,viability at 10 µM,[1]; 10 µM (DMSO 0.2%),12.6%
same,A490 ave,[1]; [6],0.680
same,A490 ave,[1]; [7],0.843
same,A490 ave,[1]; [8],0.132
same,Luminescence Raw1,"[2]; 0.04 µM, replicate 1",2516748
same,Luminescence Raw2,"[2]; 0.04 µM, replicate 2",2332079
same,Luminescence Raw1,"[2]; 0.2 µM, replicate 1",850222
same,Luminescence Raw2,"[2]; 0.2 µM, replicate 2",975712
same,Luminescence Raw1,"[2]; 1 µM, replicate 1",178460
same,Luminescence Raw2,"[2]; 1 µM, replicate 2",208026
same,Luminescence Raw1,"[2]; 4 µM, replicate 1",158268
same,Luminescence Raw2,"[2]; 4 µM, replicate 2",147451
same,Luminescence Raw1,"[2]; 10 µM, replicate 1",159710
same,Luminescence Raw2,"[2]; 10 µM, replicate 2",170888
same,Luminescence Raw1,"[2]; 20 µM, replicate 1",153581
same,Luminescence Raw2,"[2]; 20 µM, replicate 2",168364
same,IC50,[2]; [9],242 nM
same,IC50,[2]; [10],240 ± 10 nM
same,IC50,[2]; [11],237 nM
same,IC50,[2]; [12],248 nM
same,viability at 0.04 µM,[3]; [13],122%
same,viability at 0.04 µM,[3]; [14],113%
same,viability at 0.2 µM,[3]; [13],41.3%
same,viability at 0.2 µM,[3]; [14],47.4%
same,viability at 1 µM,[3]; [13],8.66%
same,viability at 1 µM,[3]; [14],10.1%
same,viability at 4 µM,[3]; [13],7.68%
same,viability at 4 µM,[3]; [14],7.16%
same,viability at 10 µM,[3]; [13],7.75%
same,viability at 10 µM,[3]; [14],8.3%
same,viability at 20 µM,[3]; [13],7.46%
same,viability at 20 µM,[3]; [14],8.17%
same,viability at 0.04 µM,[4]; [13],135%
same,viability at 0.04 µM,[4]; [14],110%
same,viability at 0.2 µM,[4]; [13],137%
same,viability at 0.2 µM,[4]; [14],130%
same,viability at 1 µM,[4]; [13],130%
same,viability at 1 µM,[4]; [14],122%
same,viability at 4 µM,[4]; [13],10.4%
same,viability at 4 µM,[4]; [14],8.47%
same,viability at 10 µM,[4]; [13],6.42%
same,viability at 10 µM,[4]; [14],6.23%
same,viability at 20 µM,[4]; [13],6.64%
same,viability at 20 µM,[4]; [14],6.04%
same,Luminescence Raw1,[5]; 0.04 µM,3470038
same,Luminescence Raw2,[5]; 0.04 µM,2834452
same,Luminescence Raw1,[5]; 0.2 µM,3507915
same,Luminescence Raw2,[5]; 0.2 µM,3346307
same,Luminescence Raw1,[5]; 1 µM,3332960
same,Luminescence Raw2,[5]; 1 µM,3138530
same,Luminescence Raw1,[5]; 4 µM,267094
same,Luminescence Raw2,[5]; 4 µM,217335
same,Luminescence Raw1,[5]; 10 µM,164693
same,Luminescence Raw2,[5]; 10 µM,160006
same,Luminescence Raw1,[5]; 20 µM,170462
same,Luminescence Raw2,[5]; 20 µM,154958
same,IC50,[5]; [9],3040 nM
same,IC50,[5]; [10],3040 ± 160 nM
same,IC50,[5]; [11],3200 nM
same,IC50,[5]; [12],2880 nM
"C=C1CCC2C(C)(CCC=C(C)C)C(O)CCC2(C)C1Cc1c(O)c(C)c(C)oc1=O (stereo not shown) [Compound 9, higginsianin B]",viability at 0.1 µM,[1]; 0.1 µM (DMSO 0.002%),53.1%
same,viability at 1 µM,[1]; 1 µM (DMSO 0.02%),95.5%
same,viability at 10 µM,[1]; 10 µM (DMSO 0.2%),27.3%
same,A490 ave,[1]; [6],0.565
same,A490 ave,[1]; [7],1.055
same,A490 ave,[1]; [8],0.286
same,Luminescence Raw1,"[2]; 0.04 µM, replicate 1",3124696
same,"% viability, viability 1",[2]; 0.04 µM,227.835%
same,Luminescence Raw2,"[2]; 0.04 µM, replicate 2",2770120
same,Luminescence Raw1,"[2]; 0.2 µM, replicate 1",2602758
same,Luminescence Raw2,"[2]; 0.2 µM, replicate 2",2435040
same,"% viability, viability 2",[2]; 0.2 µM,177.549%
same,Luminescence Raw1,"[2]; 1 µM, replicate 1",371891
same,"% viability, viability 1",[2]; 1 µM,27.1162%
same,Luminescence Raw2,"[2]; 1 µM, replicate 2",463117
same,"% viability, viability 2",[2]; 1 µM,33.7678%
same,Luminescence Raw1,"[2]; 4 µM, replicate 1",286075
same,Luminescence Raw2,"[2]; 4 µM, replicate 2",310594
same,Luminescence Raw1,"[2]; 10 µM, replicate 1",279225
same,Luminescence Raw2,"[2]; 10 µM, replicate 2",288960
same,Luminescence Raw1,"[2]; 20 µM, replicate 1",263360
same,Luminescence Raw2,"[2]; 20 µM, replicate 2",246413
same,IC50,[2]; [15],361 nM
same,IC50,"[2]; average±SEM, read-out: IC50",360 ± 30 nM
same,IC50,[2]; [16],328 nM
same,IC50,[2]; [17],394 nM
same,viability at 0.04 µM,[3]; [14],202%
same,viability at 0.2 µM,[3]; [13],190%
same,viability at 4 µM,[3]; [13],20.9%
same,viability at 4 µM,[3]; [14],22.6%
same,viability at 10 µM,[3]; [13],20.4%
same,viability at 10 µM,[3]; [14],21.1%
same,viability at 20 µM,[3]; [13],19.2%
same,viability at 20 µM,[3]; [14],18%
same,viability at 0.04 µM,[4]; [13],90.8%
same,viability at 0.04 µM,[4]; [14],91.3%
same,viability at 0.2 µM,[4]; [13],92.2%
same,viability at 0.2 µM,[4]; [14],95.4%
same,viability at 1 µM,[4]; [13],85%
same,viability at 1 µM,[4]; [14],84.3%
same,viability at 20 µM,[4]; [14],3.01%
same,Luminescence Raw1,[5]; 0.04 µM,5700406
same,Luminescence Raw2,[5]; 0.04 µM,5730357
same,Luminescence Raw1,[5]; 0.2 µM,5787371
same,Luminescence Raw2,[5]; 0.2 µM,5991618
same,Luminescence Raw1,[5]; 1 µM,5334874
same,Luminescence Raw2,[5]; 1 µM,5292296
same,Luminescence Raw1,[5]; 4 µM,375575
same,"% viability, viability 1",[5]; 4 µM,5.981%
same,Luminescence Raw2,[5]; 4 µM,295889
same,"% viability, viability 2",[5]; 4 µM,4.712%
same,Luminescence Raw1,[5]; 10 µM,141567
same,"% viability, viability 1",[5]; 10 µM,2.255%
same,Luminescence Raw2,[5]; 10 µM,144091
same,"% viability, viability 2",[5]; 10 µM,2.295%
same,Luminescence Raw1,[5]; 20 µM,140485
same,"% viability, viability 1",[5]; 20 µM,2.2373%
same,Luminescence Raw2,[5]; 20 µM,188801
same,IC50,[5]; [15],1540 nM
same,IC50,"[5]; average±SEM, read-out: IC50",1540 ± 10 nM
same,IC50,[5]; [16],1540 nM
same,IC50,[5]; [17],1540 nM
